Laboratory results taken from PubChem BioAssay AID248 (DTP/NCI, 2004).
Several values for one entry are separate records, joined by “and”; a condition that tells them apart may be missing. Equal values may be shown once. Inconclusive results and toxic doses are left out. Rule as the data show it: active = T/C of 150% or more; inactive = T/C below 125%.

Tested on: L1210 leukemia ip in BDF1 mice, survival T/C
Experiment: NCI In Vivo Anticancer Drug Screen. Data for tumor model L1210 Leukemia (intraperitoneal) in B6D2F1 (BDF1) mice
Details: endpoint: mean survival time, higher = longer survival
Procedure, shortened: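 Ratio derived from survival: compound-dosed mice over vehicle-dosed mice, all bearing a transplantable tumor.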

[1] = dose: 100.0 mg/kg/injection, schedule: Q01DX001 (ip), vehicle: saline with Tween-80
[2] = dose: 200.0 mg/kg/injection, schedule: Q01DX001 (ip), vehicle: saline with Tween-80
[3] = dose: 400.0 mg/kg/injection, schedule: Q01DX001 (ip), vehicle: saline with Tween-80
[4] = dose: 25.0 mg/kg/injection, schedule: Q04DX002 (ip), vehicle: Klucel (hydroxypropylcellulose) (HPC)
[5] = dose: 100.0 mg/kg/injection, schedule: Q04DX002 (ip), vehicle: Klucel (hydroxypropylcellulose) (HPC)
[6] = dose: 100.0 mg/kg/injection, schedule: Q01DX001 (ip), vehicle: saline
[7] = dose: 200.0 mg/kg/injection, schedule: Q01DX001 (ip), vehicle: saline
[8] = dose: 100.0 mg/kg/injection, schedule: Q01DX009 (ip), vehicle: saline with Tween-80
[9] = dose: 200.0 mg/kg/injection, schedule: Q01DX009 (ip), vehicle: saline with Tween-80
[10] = dose: 400.0 mg/kg/injection, schedule: Q01DX009 (ip), vehicle: saline with Tween-80

Measured: T/C

CC1(C)N=C(N)N=C(N)N1c1ccc(CCc2ccc(S(=O)(=O)F)cc2)cc1
inactive: [1] 97 % of control | [2] 97 % of control | [3] 102 % of control

NC(CSS(=O)(=O)O)=NCCc1ccc(O)cc1
inactive: [4] 110 % of control | [5] 90 % of control and 91 % of control

N#CCC(N)C(=O)O (stereo not drawn)
inactive: dose: 50.0 mg/kg/injection, schedule: Q01DX001 (ip), vehicle: saline 90 % of control | [6] 96 % of control | [7] 96 % of control

CC(C)NC=O
inactive: [6] 96 % of control | [7] 102 % of control | dose: 400.0 mg/kg/injection, schedule: Q01DX001 (ip), vehicle: saline 104 % of control

CC(C)C([NH-])=O.CC(C)C([NH-])=O.[Cl][Pt+2][Cl]
inactive: dose: 12.5 mg/kg/injection, schedule: Q04DX003 (ip), vehicle: saline 116 % of control | dose: 25.0 mg/kg/injection, schedule: Q01DX009 (ip), vehicle: saline 102 % of control | dose: 25.0 mg/kg/injection, schedule: Q04DX003 (ip), vehicle: saline 118 % of control | dose: 50.0 mg/kg/injection, schedule: Q01DX009 (ip), vehicle: saline 89 % of control | dose: 50.0 mg/kg/injection, schedule: Q04DX003 (ip), vehicle: saline 112 % of control | dose: 100.0 mg/kg/injection, schedule: Q04DX003 (ip), vehicle: saline 108 % of control and 118 % of control

CCCCCCCCCCCC(=O)[O][Sn]([CH2]CCC)([CH2]CCC)[O]C(=O)CCCCCCCCCCC
inactive: dose: 12.5 mg/kg/injection, schedule: Q04DX003 (ip), vehicle: saline with Tween-80 108 % of control

Cc1ccc(CNC2=C(Cl)C(=O)c3ccccc3C2=O)cc1C
inactive: dose: 12.5 mg/kg/injection, schedule: Q04DX002 (ip), vehicle: Klucel (hydroxypropylcellulose) (HPC) 92 % of control | [4] 87 % of control

COc1ccc(C(=O)Nc2ccc(C)c(Cl)c2)cc1
inactive: [5] 115 % of control | dose: 200.0 mg/kg/injection, schedule: Q04DX002 (ip), vehicle: Klucel (hydroxypropylcellulose) (HPC) 115 % of control | dose: 400.0 mg/kg/injection, schedule: Q04DX002 (ip), vehicle: Klucel (hydroxypropylcellulose) (HPC) 112 % of control

Cc1ccc(Nc2cc(=O)[nH]c(N)n2)cc1
inactive: dose: 100.0 mg/kg/injection, schedule: Q01DX Z (ip), vehicle: methylcellulose (MC) 94 % of control

O=C(NC(=S)Nc1cccc(O)c1)c1cccc([N+](=O)[O-])c1
inactive: [1] 93 % of control | [8] 94 % of control and 87 % of control | dose: 100.0 mg/kg/injection, schedule: Q04DX002 (ip), vehicle: saline with Tween-80 98 % of control and 101 % of control | dose: 100.0 mg/kg/injection, schedule: Q04DX003 (ip), vehicle: saline with Tween-80 89 % of control | [2] 97 % of control | [9] 93 % of control and 105 % of control | dose: 200.0 mg/kg/injection, schedule: Q04DX002 (ip), vehicle: saline with Tween-80 96 % of control and 109 % of control | dose: 200.0 mg/kg/injection, schedule: Q04DX003 (ip), vehicle: saline with Tween-80 109 % of control | [3] 103 % of control | [10] 94 % of control | dose: 400.0 mg/kg/injection, schedule: Q04DX002 (ip), vehicle: saline with Tween-80 101 % of control | dose: 400.0 mg/kg/injection, schedule: Q04DX003 (ip), vehicle: saline with Tween-80 94 % of control

CCOC(=O)/C=C(/C)OC(C)=O
inactive: dose: 100.0 mg/kg/injection, schedule: Q01DX009 (ip), vehicle: Klucel (hydroxypropylcellulose) (HPC) 100 % of control | dose: 100.0 mg/kg/injection, schedule: Q04DX003 (ip), vehicle: Klucel (hydroxypropylcellulose) (HPC) 101 % of control | dose: 200.0 mg/kg/injection, schedule: Q01DX009 (ip), vehicle: Klucel (hydroxypropylcellulose) (HPC) 98 % of control | dose: 200.0 mg/kg/injection, schedule: Q04DX003 (ip), vehicle: Klucel (hydroxypropylcellulose) (HPC) 95 % of control | dose: 400.0 mg/kg/injection, schedule: Q01DX009 (ip), vehicle: Klucel (hydroxypropylcellulose) (HPC) 100 % of control | dose: 400.0 mg/kg/injection, schedule: Q04DX003 (ip), vehicle: Klucel (hydroxypropylcellulose) (HPC) 95 % of control

CC(=O)Nc1ccc(Br)c(NC(C)=O)n1
inactive: [8] 109 % of control | [9] 101 % of control | [10] 112 % of control

Cc1cc(Br)c2c(c1O)C13CCN(C)C(C2)C1CC(Br)C(=O)C3 (stereo not drawn)
inactive: dose: 1.56 mg/kg/injection, schedule: Q01DX001 (ip), vehicle: saline 97 % of control | dose: 3.12 mg/kg/injection, schedule: Q01DX001 (ip), vehicle: saline 100 % of control | dose: 6.25 mg/kg/injection, schedule: Q01DX001 (ip), vehicle: saline 105 % of control | dose: 12.5 mg/kg/injection, schedule: Q01DX001 (ip), vehicle: saline 108 % of control

CN(C)c1ccc2oc(=O)c3ccccc3c2c1
inactive: dose: 50.0 mg/kg/injection, schedule: Q01DX001 (ip), vehicle: carboxymethylcellulose (CMC) 100 % of control | dose: 100.0 mg/kg/injection, schedule: Q01DX001 (ip), vehicle: carboxymethylcellulose (CMC) 92 % of control | dose: 200.0 mg/kg/injection, schedule: Q01DX001 (ip), vehicle: carboxymethylcellulose (CMC) 100 % of control | dose: 400.0 mg/kg/injection, schedule: Q01DX001 (ip), vehicle: carboxymethylcellulose (CMC) 94 % of control
